According to US20170334899A1, “AMINO-SUBSTITUTED ISOTHIAZOLES” (Bayer Pharma Aktiengesellschaft, priority 2014, published 2017):

target: T1, human kinase Mps-1 (Homo sapiens, UniProt P33981); assay: Mps-1 kinase assay (TR-FRET); type: biochemical; settings: Mps-1 TR-FRET kinase assay; avg; read-out: Mps1 avg (IC50 [mol/l])
T1 construct: N-terminally GST-tagged human full length recombinant Mps-1 kinase; GST (N); purchased Invitrogen, Karslruhe, Germany PV4071
T1 sequence (P33981 1-857): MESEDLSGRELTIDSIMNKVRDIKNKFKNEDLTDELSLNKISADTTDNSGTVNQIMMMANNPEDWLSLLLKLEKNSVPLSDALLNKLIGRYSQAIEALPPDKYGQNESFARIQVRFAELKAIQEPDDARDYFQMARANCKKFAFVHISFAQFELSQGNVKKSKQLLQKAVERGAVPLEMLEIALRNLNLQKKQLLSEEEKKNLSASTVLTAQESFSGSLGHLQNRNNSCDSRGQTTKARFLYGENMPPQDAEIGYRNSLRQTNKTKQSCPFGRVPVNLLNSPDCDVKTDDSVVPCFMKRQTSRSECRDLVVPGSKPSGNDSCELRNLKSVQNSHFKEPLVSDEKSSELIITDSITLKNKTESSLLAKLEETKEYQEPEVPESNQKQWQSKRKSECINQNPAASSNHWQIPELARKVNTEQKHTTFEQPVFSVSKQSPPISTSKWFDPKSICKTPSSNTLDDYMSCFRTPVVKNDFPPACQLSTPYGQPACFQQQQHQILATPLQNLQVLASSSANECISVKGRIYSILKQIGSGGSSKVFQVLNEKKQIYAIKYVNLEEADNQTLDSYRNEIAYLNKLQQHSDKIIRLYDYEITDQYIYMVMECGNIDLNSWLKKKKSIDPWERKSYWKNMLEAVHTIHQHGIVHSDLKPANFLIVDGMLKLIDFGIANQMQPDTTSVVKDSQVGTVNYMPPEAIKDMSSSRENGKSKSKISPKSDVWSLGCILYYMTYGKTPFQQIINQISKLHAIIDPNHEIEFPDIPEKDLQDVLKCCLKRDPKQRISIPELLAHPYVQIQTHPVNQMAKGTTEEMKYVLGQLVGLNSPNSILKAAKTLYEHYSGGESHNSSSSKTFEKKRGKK
How it was run: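 Inhibition normalised between uninhibited reaction (0%) and enzyme-free wells (100%), using the blank-corrected TR-FRET 665/620 nm ratio after EDTA stop. Reaction: ~0.5 nM GST-Mps-1 full length, 10 μM ATP, 1 μM biotin-peptide, 60 min at 22 °C, after 15 min compound pre-binding, pH 7.7.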

Compound | IC50
Cc1nsc(Nc2cnc3ccccc3n2)c1C(=O)Nc1cccc(NS(=O)(=O)C2CCCN(C(=O)OCc3ccccc3)C2)c1 (centres unmarked) [Example 291, benzyl 3-{[3-({[3-methyl-5-(quinoxalin-2-ylamino)-1,2-thiazol-4-yl]carbonyl}amino)phenyl]sulfamoyl} piperidine-1-carboxylate] | > 20 µM
Cc1nsc(Nc2cnc(C(F)(F)F)cn2)c1C(=O)Nc1ccc(OCCCNCC(F)(F)F)nc1 [Example 292, 3-methyl-N-(6-{3-[(2,2,2-trifluoroethyl)amino]propoxy}pyridin-3-yl)-5-{[5-(trifluoromethyl)pyrazin-2-yl]amino}-1,2-thiazole-4-carboxamide] | > 20 µM
Cc1nsc(Nc2cnc(C(F)(F)F)cn2)c1C(=O)Nc1ccc(OCCCNCC(F)F)nc1 [Example 293, N-(6-{3-[(2,2-difluoroethyl)amino]propoxy}pyridin-3-yl)-3-methyl-5-{[5-(trifluoromethyl)pyrazin-2-yl]amino}-1,2-thiazole-4-carboxamide] | > 20 µM
Cc1nsc(Nc2cnc(C(F)(F)F)cn2)c1C(=O)Nc1ccc(OCCCNCCC(F)(F)F)nc1 [Example 294, 3-methyl-5-{[5-(trifluoromethyl)pyrazin-2-yl]amino}-N-(6-{3-[(3,3,3-trifluoropropyl)amino]propoxy}pyridin-3-yl)-1,2-thiazole-4-carboxamide] | > 20 µM
Cc1nsc(Nc2cnc(C(F)(F)F)cn2)c1C(=O)Nc1ccc(OC2CCN(CCF)C2)nc1 (centres unmarked) [Example 295, N-(6-{[1-(2-fluoroethyl)pyrrolidin-3-yl]oxy}pyridin-3-yl)-3-methyl-5-{[5-(trifluoromethyl)pyrazin-2-yl]amino}-1,2-thiazole-4-carboxamide] | > 20 µM
Cc1nsc(Nc2cnc(C(F)(F)F)cn2)c1C(=O)Nc1ccc(OC2CCN(CC(F)F)C2)nc1 (centres unmarked) [Example 296, N-(6-{[1-(2,2-difluoroethyl)pyrrolidin-3-yl]oxy}pyridin-3-yl)-3-methyl-5-{[5-(trifluoromethyl)pyrazin-2-yl]amino}-1,2-thiazole-4-carboxamide] | > 20 µM
Cc1nsc(Nc2cnc(C(F)(F)F)cn2)c1C(=O)Nc1ccc(OC2CCN(CC(F)(F)F)C2)nc1 (centres unmarked) [Example 297, 3-methyl-N-(6-{[1-(2,2,2-trifluoroethyl)pyrrolidin-3-yl]oxy}pyridin-3-yl)-5-{[5-(trifluoromethyl)pyrazin-2-yl]amino}-1,2-thiazole-4-carboxamide] | 12 µM
Cc1nsc(Nc2cnc(C(F)(F)F)cn2)c1C(=O)Nc1ccc(OC2CCN(CCC(F)(F)F)C2)nc1 (centres unmarked) [Example 298, 3-methyl-5-{[5-(trifluoromethyl)pyrazin-2-yl]amino}-N-(6-{[1-(3,3,3-trifluoropropyl)pyrrolidin-3-yl]oxy}pyridin-3-yl)-1,2-thiazole-4-carboxamide] | > 20 µM
Cc1nsc(Nc2cnc(C(F)(F)F)cn2)c1C(=O)Nc1ccc(N(C)C)c(OCCCN(C)CC(F)(F)F)c1 [Example 299, N-[4-(dimethylamino)-3-{3-[methyl(2,2,2-trifluoroethyl)amino]propoxy}phenyl]-3-methyl-5-{[5-(trifluoromethyl)pyrazin-2-yl]amino}-1,2-thiazole-4-carboxamide] | > 20 µM
Cc1nsc(Nc2cnc(C(F)(F)F)cn2)c1C(=O)Nc1ccc(N(C)C)c(OCCCN(C)CCC(F)(F)F)c1 [Example 300, N-[4-(dimethylamino)-3-{3-[methyl(3,3,3-trifluoropropyl)amino]propoxy}phenyl]-3-methyl-5-{[5-(trifluoromethyl)pyrazin-2-yl]amino}-1,2-thiazole-4-carboxamide] | > 20 µM
Cc1nsc(Nc2cnc(C(F)(F)F)cn2)c1C(=O)Nc1ccc(F)c(OCCCN(C)CC(F)F)c1 [Example 301, N-(3-{3-[(2,2-difluoroethyl)(methyl)amino]propoxy}-4-fluorophenyl)-3-methyl-5-{[5-(trifluoromethyl)pyrazin-2-yl]amino}-1,2-thiazole-4-carboxamide] | > 20 µM
Cc1nsc(Nc2cnc(C(F)(F)F)cn2)c1C(=O)Nc1ccc(F)c(OCCCN(C)CC(F)(F)F)c1 [Example 302, N-(4-fluoro-3-{3-[methyl(2,2,2-trifluoroethyl)amino]propoxy}phenyl)-3-methyl-5-{[5-(trifluoromethyl)pyrazin-2-yl]amino}-1,2-thiazole-4-carboxamide] | > 20 µM
Cc1nsc(Nc2cnc(C(F)(F)F)cn2)c1C(=O)Nc1ccc(F)c(OCCCN(C)CCC(F)(F)F)c1 [Example 303, N-(4-fluoro-3-{3-[methyl(3,3,3-trifluoropropyl)amino]propoxy}phenyl)-3-methyl-5-{[5-(trifluoromethyl)pyrazin-2-yl]amino}-1,2-thiazole-4-carboxamide] | ≥ 20 µM
Cc1nsc(Nc2cncc(C(F)(F)F)n2)c1C(=O)Nc1ccc(OC2CCN(CCC(F)(F)F)CC2)nc1 [Example 304, 3-methyl-5-{[6-(trifluoromethyl)pyrazin-2-yl]amino}-N-(6-{[1-(3,3,3-trifluoropropyl)piperidin-4-yl]oxy}pyridin-3-yl)-1,2-thiazole-4-carboxamide] | > 20 µM
Cc1nsc(Nc2cnc(C(F)(F)F)cn2)c1C(=O)Nc1ccc(OCCNCC(F)F)nc1 [Example 305, N-(6-{2-[(2,2-difluoroethyl)amino]ethoxy}pyridin-3-yl)-3-methyl-5-{[5-(trifluoromethyl)pyrazin-2-yl]amino}-1,2-thiazole-4-carboxamide] | ≥ 20 µM
Cc1nsc(Nc2cnc(C(F)(F)F)cn2)c1C(=O)Nc1ccc(F)c(OCCCNCC(F)(F)F)c1 [Example 306, N-(4-fluoro-3-{3-[(2,2,2-trifluoroethyl)amino]propoxy}phenyl)-3-methyl-5-{[5-(trifluoromethyl)pyrazin-2-yl]amino}-1,2-thiazole-4-carboxamide] | ≥ 20 µM
Cc1nsc(Nc2cnc(C(F)(F)F)cn2)c1C(=O)Nc1ccc(F)c(OCCCNCCC(F)(F)F)c1 [Example 307, N-(4-fluoro-3-{3-[(3,3,3-trifluoropropyl)amino]propoxy}phenyl)-3-methyl-5-{[5-(trifluoromethyl)pyrazin-2-yl]amino}-1,2-thiazole-4-carboxamide] | ≥ 20 µM
Cc1nsc(Nc2cnc(C(F)(F)F)cn2)c1C(=O)Nc1ccc(F)c(OCC2CCN(CC(F)F)CC2)c1 [Example 308, N-(3-{[1-(2,2-difluoroethyl)piperidin-4-yl]methoxy}-4-fluorophenyl)-3-methyl-5-{[5-(trifluoromethyl)pyrazin-2-yl]amino}-1,2-thiazole-4-carboxamide] | ≥ 20 µM
Cc1nsc(Nc2cnc(C(F)(F)F)cn2)c1C(=O)Nc1ccc(F)c(OCC2CCN(CCF)CC2)c1 [Example 309, N-(4-fluoro-3-{[1-(2-fluoroethyl)piperidin-4-yl]methoxy}phenyl)-3-methyl-5-{[5-(trifluoromethyl)pyrazin-2-yl]amino}-1,2-thiazole-4-carboxamide] | ≥ 20 µM
Cc1nsc(Nc2cnc(C(F)(F)F)cn2)c1C(=O)Nc1ccc(F)c(OCC2CCN(CCC(F)(F)F)CC2)c1 [Example 311, N-(4-fluoro-3-{[1-(3,3,3-trifluoropropyl)piperidin-4-yl]methoxy}phenyl)-3-methyl-5-{[5-(trifluoromethyl)pyrazin-2-yl]amino}-1,2-thiazole-4-carboxamide] | > 20 µM
Cc1nsc(Nc2cnc(C(F)(F)F)cn2)c1C(=O)Nc1ccc(F)c(OCC2CCN(C(CF)CF)CC2)c1 [Example 312, N-(3-{[1-(1,3-difluoropropan-2-yl)piperidin-4-yl]methoxy}-4-fluorophenyl)-3-methyl-5-{[5-(trifluoromethyl)pyrazin-2-yl]amino}-1,2-thiazole-4-carboxamide] | ≥ 20 µM
Cc1nsc(Nc2cnc(C(F)(F)F)cn2)c1C(=O)Nc1ccc(OC2CCN(C(CF)CF)C2)nc1 (centres unmarked) [Example 313, N-(6-{[1-(1,3-difluoropropan-2-yl)pyrrolidin-3-yl]oxy}pyridin-3-yl)-3-methyl-5-{[5-(trifluoromethyl)pyrazin-2-yl]amino}-1,2-thiazole-4-carboxamide] | ≥ 20 µM
Cc1nsc(Nc2cnc(C(F)(F)F)cn2)c1C(=O)Nc1ccc(F)c(OC2CCN(CC(F)F)C2)c1 (centres unmarked) [Example 314, N-(3-{[1-(2,2-difluoroethyl)pyrrolidin-3-yl]oxy}-4-fluorophenyl)-3-methyl-5-{[5-(trifluoromethyl)pyrazin-2-yl]amino}-1,2-thiazole-4-carboxamide] | ≥ 20 µM
